Results on 16 compounds are retold here after patent publication US9365522B2, “Pyrazole amide derivative” (AMGEN INC., priority 2015, dated 2016).

This test deals with T1, ligand binding domain of human ROR gamma (Homo sapiens, UniProt P51449).
T1 construct: NM_001001523; expressed in transfected cells; host or cells: HEK293T
T1 sequence (P51449 247-497 isoform P51449-2): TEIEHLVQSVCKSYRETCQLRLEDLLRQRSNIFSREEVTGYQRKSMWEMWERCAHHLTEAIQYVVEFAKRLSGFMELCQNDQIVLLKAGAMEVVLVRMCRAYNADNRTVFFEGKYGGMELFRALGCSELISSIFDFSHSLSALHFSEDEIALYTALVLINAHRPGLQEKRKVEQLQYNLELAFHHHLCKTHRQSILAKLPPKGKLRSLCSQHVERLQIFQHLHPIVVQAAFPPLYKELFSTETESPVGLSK
Description: ROR gamma reporter gene assay (GAL4-RORγ LBD luciferase, Dual-Glo). The class given is cell-based. Particulars: HEK293T cells transfected with pM-ROR gamma, 8 concentrations 3.5 nM to 10.5 μM, 24 h incubation; read-out: result (pIC50, inhibition of RORγ transcriptional activity) (converted). An outline of the steps:
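HEK293T cells were co-transfected with GAL4 DBD fused to human RORγ LBD (aa 247-497), a 5×UAS firefly luciferase reporter and CMV-driven renilla luciferase, in medium with 10% charcoal-stripped FBS.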
(In a reporter assay the amount or activity of a reporter protein is the signal.)
Turning to `Cn1nc(Cl)c(C(=O)CN(Cc2cc(F)cc(F)c2)C(=O)c2cnn([C@H]3CC[C@H](C(=O)O)CC3)c2C(F)(F)F)c1Cl` [Example 201, trans-4-(4-((2-(3,5-dichloro-1-methylpyrazol-4-yl)-2-oxoethyl)-((3,5-difluorophenyl)methyl)carbamoyl)-5-(trifluoromethyl)pyrazol-1-yl)cyclohexane-1-carboxylic acid], the IC50 was > 1e+07 pM.
With `C[C@]1(C(=O)O)CC[C@H](n2ncc(C(=O)N(CC(=O)c3c(Cl)cc(F)cc3Cl)CC3CC4(CC4)C3)c2C(F)(F)F)CC1` [Example 202, trans-4-(4-((2-(2,6-dichloro-4-fluorophenyl)-2-oxoethyl)-(spiro[2.3]hexan-5-ylmethyl)carbamoyl)-5-(trifluoromethyl)pyrazol-1-yl)-1-methylcyclohexane-1-carboxylic acid], the IC50 is 7940 pM.
With `CC(C)(C)CC1CC(N(CC(=O)c2c(Cl)cc(F)cc2Cl)C(=O)c2cnn([C@H]3CC[C@](C)(C(=O)O)CC3)c2C(F)(F)F)C1` (stereo partly drawn) [Example 203, trans-4-(4-((2-(2,6-dichloro-4-fluorophenyl)-2-oxoethyl)-(3-(2,2-dimethylpropyl)cyclobutyl)carbamoyl)-5-(trifluoromethyl)pyrazol-1-yl)-1-methylcyclohexane-1-carboxylic acid], the IC50 was 912000 pM.
Consider `CC(C1CC2(CC2)C1)N(CC(=O)c1c(Cl)cncc1Cl)C(=O)c1cnn([C@H]2CC[C@H](C(=O)O)CC2)c1C(F)(F)F` (stereo partly drawn) [Example 204, trans-4-(4-((2-(3,5-dichloropyridin-4-yl)-2-oxoethyl)-(1-spiro[2.3]hexan-5-ylethyl)carbamoyl)-5-(trifluoromethyl)pyrazol-1-yl)cyclohexane-1-carboxylic acid], for which the IC50 is 60300 pM.
Regarding `CC1(C)CCCC(N(CC(=O)c2c(Cl)cncc2Cl)C(=O)c2cnn([C@H]3CC[C@H](C(=O)O)CC3)c2C(F)(F)F)C1` (stereo partly drawn) [Example 205, trans-4-(4-((2-(3,5-dichloropyridin-4-yl)-2-oxoethyl)-(3,3-dimethylcyclohexyl)carbamoyl)-5-(trifluoromethyl)pyrazol-1-yl)cyclohexane-1-carboxylic acid], the IC50 is 138000 pM.
With `Cc1cc(Cl)c(C(=O)CN(CC#CC(C)(C)C)C(=O)c2cnn([C@H]3CC[C@](C)(C(=O)O)CC3)c2C(F)(F)F)c(Cl)c1` [Example 206, trans-4-(4-((2-(2,6-dichloro-4-methylphenyl)-2-oxoethyl)-(4,4-dimethylpent-2-ynyl)carbamoyl)-5-(trifluoromethyl)pyrazol-1-yl)-1-methylcyclohexane-1-carboxylic acid], the IC50 is 100000 pM.
`CC(C)(C)C#CCN(CC(=O)c1c(Cl)cc(Cl)cc1Cl)C(=O)c1cnn([C@H]2CC[C@](C)(C(=O)O)CC2)c1C(F)(F)F` [Example 207, trans-4-(4-(4,4-dimethylpent-2-ynyl-(2-oxo-2-(2,4,6-trichlorophenyl)ethyl)carbamoyl)-5-(trifluoromethyl)pyrazol-1-yl)-1-methylcyclohexane-1-carboxylic acid]: the IC50 is 63100 pM.
With `CC1(C)CC(N(CC(=O)c2c(Cl)cncc2Cl)C(=O)c2cnn([C@H]3CC[C@H](C(=O)O)CC3)c2C(F)(F)F)CO1` (stereo partly drawn) [Example 208, trans-4-(4-((2-(3,5-dichloropyridin-4-yl)-2-oxoethyl)-(5,5-dimethyloxolan-3-yl)carbamoyl)-5-(trifluoromethyl)pyrazol-1-yl)cyclohexane-1-carboxylic acid], the IC50 was 302000 pM.
As for `O=C(CN(Cc1cc(F)cc(F)c1)C(=O)c1cnn([C@H]2CC[C@H](C(=O)O)CC2)c1C(F)(F)F)c1c(Cl)n[nH]c1Cl` [Example 209, trans-4-(4 ((2-(3,5-dichloro-1H-pyrazol-4-yl)-2-oxoethyl)-((3,5-difluorophenyl)methyl)carbamoyl)-5-(trifluoromethyl)pyrazol-1-yl)cyclohexane-1-carboxylic acid], the IC50 is > 1e+07 pM.
Under `CC1(C#N)CCC(N(CC(=O)c2c(Cl)cncc2Cl)C(=O)c2cnn([C@H]3CC[C@H](C(=O)O)CC3)c2C(F)(F)F)C1` (stereo partly drawn) [Example 210, trans-4-(4-((3-cyano-3-methylcyclopentyl)-(2-(3,5-dichloropyridin-4-yl)-2-oxoethyl)carbamoyl)-5-(trifluoromethyl)pyrazol-1-yl)cyclohexane-1-carboxylic acid] stands 1.02e+06 pM.
For the compound `CC1(C)[C@@H]2C[C@H](N(CC(=O)c3c(Cl)cncc3Cl)C(=O)c3cnn([C@H]4CC[C@H](C(=O)O)CC4)c3C(F)(F)F)C[C@@H]21` [Example 211, trans-4-(4-((2-(3,5-dichloropyridin-4-yl)-2-oxoethyl)-((1R,3r,5S)-6,6-dimethyl-3-bicyclo[3.1.0]hexanyl)carbamoyl)-5-(trifluoromethyl)pyrazol-1-yl)cyclohexane-1-carboxylic acid], the IC50 is 22400 pM.
As for `O=C(CN(C(=O)c1cnn([C@H]2CC[C@H](C(=O)O)CC2)c1C(F)(F)F)[C@H]1CC[C@@H](C(F)(F)F)CC1)c1c(Cl)cncc1Cl` [Example 212, trans-4-(4-((2-(3,5-dichloropyridin-4-yl)-2-oxoethyl)-(4-(trifluoromethyl)cyclohexyl)carbamoyl)-5-(trifluoromethyl)pyrazol-1-yl)cyclohexane-1-carboxylic acid], the IC50 was 20000 pM.
With `O=C(CN(C(=O)c1cnn([C@H]2CC[C@H](C(=O)O)CC2)c1C(F)(F)F)[C@H]1CC[C@H](C(F)(F)F)CC1)c1c(Cl)cncc1Cl` [Example 213, trans-4-(4-((2-(3,5-dichloropyridin-4-yl)-2-oxoethyl)-(4-(trifluoromethyl)cyclohexyl)carbamoyl)-5-(trifluoromethyl)pyrazol-1-yl)cyclohexane-1-carboxylic acid], the IC50 was 112000 pM.
The result for `COc1cccc(Cl)c1C(=O)CN(CC#CC(C)(C)C)C(=O)c1cnn([C@H]2CC[C@](C)(C(=O)O)CC2)c1C(F)(F)F` [Example 214, trans-4-(4-((2-(2-chloro-6-methoxyphenyl)-2-oxoethyl)-(4,4-dimethylpent-2-ynyl)carbamoyl)-5-(trifluoromethyl)pyrazol-1-yl)-1-methylcyclohexane-1-carboxylic acid] reads 324000 pM; that for `O=C(CN(C(=O)c1cnn([C@H]2CC[C@H](C(=O)O)CC2)c1C(F)(F)F)C1CC2CCC1C2)c1c(Cl)cncc1Cl` (stereo partly drawn) [Example 215, trans-4-(4-(3-bicyclo[2.2.1]heptanyl-(2-(3,5-dichloropyridin-4-yl)-2-oxoethyl)carbamoyl)-5-(trifluoromethyl)pyrazol-1-yl)cyclohexane-1-carboxylic acid], 32400 pM.
Take `O=C(CN(Cc1cc(F)cc(F)c1)C(=O)c1cnn([C@H]2CC[C@H](C(=O)O)CC2)c1C(F)(F)F)c1c(Cl)nsc1Cl` [Example 216, trans-4-(4-((2-(3,5-dichloro-1,2-thiazol-4-yl)-2-oxoethyl)-((3,5-difluorophenyl)methyl)carbamoyl)-5-(trifluoromethyl)pyrazol-1-yl)cyclohexane-1-carboxylic acid]: the IC50 was > 1.05e+06 pM.
